From PubChem BioAssay AID1963597 (National Center for Advancing Translational Sciences (NCATS), 2024)
Residues, ends and D or L forms follow the SMILES beside them. *: point of attachment. Hexanoyl = CCCCCC(=O)*

test system: human liver microsomes, metabolic stability half-life; assay: NCATS Human Liver Microsomal (HLM) Stability Profiling; conditions: higher = more stable; screened at 1 µM (by protocol)
In short: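 Half-life derived from parent loss over 0–60 min (0, 5, 10, 15, 30, 60 min) at 37 °C. Incubations: 0.5 mg/mL microsomes, 1 µM test article, NADPH regeneration, pH 7.4 phosphate; quenched in acetonitrile containing albendazole, analysed by MS.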

Structure (SMILES) | half-life [min]
Cc1cc(-c2ncc(CC(=O)Nc3ccc(-c4cnccn4)cn3)cc2C)ccn1 | 36.4
Clc1ccc(N2CCN(c3ncnc4c3nc3n4CCCC3)CC2)cc1 | 37.9
Cc1c(C)n(Cc2ccccc2)c2ccc(C(=O)OCCN(C)C)cc12 | 11.1
O=C(Nc1cccnc1)N1CCC(Cc2cccc(Oc3ccc(C(F)(F)F)cn3)c2)CC1 | 33.9
CCOC(=O)Nc1ccc(NCc2ccc(F)cc2)cc1N | > 120
COP(=S)(OC)SCn1nnc2ccccc2c1=O | 8.16
Cc1nn(CC(=O)NCCc2ccccc2)c(=O)c2c1sc1ccccc12 | 6.82
CC(Cc1cccc(C(F)(F)F)c1)NCCOC(=O)c1ccccc1 (stereo not drawn) | 0.84
Cc1ccc(-c2ccccc2C#N)cc1 | 1
CC(=O)N1CCC(Cc2ccc(C(=O)NC3CC3)cc2)CC1 | > 120
Cc1cc(C)c(-n2cc(C)c3c(Cl)nc(C)nc32)c(C)c1 | 10.1
CC#C[C@@H](CC(=O)O)c1ccc(OCc2ccc(CN3CCC4(C=Cc5ccccc54)CC3)s2)cc1 | 25.1
Cc1ccc(-c2cc3ncc(C(=O)c4cc([N+](=O)[O-])ccc4O)cn3n2)cc1 | 4.91
Cn1ncc(Cl)c1-c1cc(C(=O)NC(CN)Cc2ccc(F)c(F)c2)oc1Cl (stereo not drawn) | > 120
CCOC(=O)c1c(NC(=O)c2ccc(S(=O)(=O)N(C)C3CCCCC3)cc2)sc2c1CCN(C(C)C)C2 | 2.21
Cc1cc(O)c2c(c1)C(=O)c1cccc(O)c1C2=O | 1.86
O=C1CCC(c2ccccc2)(C2CCN(Cc3ccc(I)cc3)CC2)C(=O)N1 (stereo not drawn) | > 120
Cc1ccccc1C(=O)Nc1ccc(C(=O)N2CCCC(O)c3cc(Cl)ccc32)c(C)c1 (stereo not drawn) | 13.9
CN(C)[C@@H]1C(=O)C(C(N)=O)=C(O)[C@@]2(O)C(=O)C3=C(O)c4c(O)cccc4C[C@H]3C[C@@H]12 | > 120
CC1(C#N)CCN(c2c(C(=O)N3CCC(S(C)(=O)=O)CC3)cnc3cc(F)c(F)cc23)CC1 | > 120
CCOc1cc(CC(=O)N[C@@H](CC(C)C)c2ccccc2N2CCCCC2)ccc1C(=O)O | 44.3
CCCN(CCC)CCc1cccc2c1CC(=O)N2 | > 120
CCCc1ccc(OCC(=O)N2CCN(C(=O)COc3ccc(CCC)cc3OC)CC2)c(OC)c1 | 2.8
O=c1oc2ccccc2c(O)c1Cc1c(O)c2ccccc2oc1=O | 33.3
O=C(Cn1cnc2onc(-c3ccc(F)cc3)c2c1=O)Nc1cccc(C(F)(F)F)c1 | 40.4
CC1=C(c2ccc(NC(=O)c3c(F)cccc3F)cc2)CN(c2nccs2)CC1 | 38.9

Structure (SMILES) | half-life [min]
Cc1ccccc1C(=O)N1CCC(C(=O)N2CCC(N3Cc4ccccc4C3=O)CC2)CC1 | 93.1
CCn1cc(C(=O)O)c(=O)c2cc(F)c(N3CCN[C@@H](C)C3)c(F)c21 | 87.7
O=C(C1CCCCC1)N1CC(=O)N2CCCc3ccccc3C2C1 (stereo not drawn) | 20.8
Cc1ccc(C(=O)Oc2ccc(C(O)CNC(C)(C)C)cc2OC(=O)c2ccc(C)cc2)cc1 (stereo not drawn) | 2.27
O=C(N[C@H]1CCN(C(=O)c2cc(C(F)(F)F)cc(C(F)(F)F)c2)[C@H](Cc2ccc(Cl)cc2)C1)c1ccnc2ccccc12 | 49.2
CCOC(=O)c1cccnc1 | 9.43
COc1cc2c(cc1OC)CN(C(=O)[C@H](C)N[C@@H](CCc1ccccc1)C(=O)O)[C@H](C(=O)O)C2 | > 120
CCc1ccc(CNC(=O)c2sc3ncccc3c2-n2c(C)ccc2C)cc1 | 1.9
CC(C)c1ccc2oc3nc(N)c(C(=O)O)cc3c(=O)c2c1 | > 120
CCN(Cc1ccncc1)C(=O)[C@@H](CO)c1ccccc1 | > 120
Cn1cnc2c1c(=O)[nH]c(=O)n2C | 60.4
COCC(=O)NCC=Cc1ccc2ncnc(Nc3ccc(Oc4ccc(C)nc4)c(C)c3)c2c1 | 22.7
CC(C(=O)O)C1C=CC(C(=O)c2ccccc2)S1 (stereo not drawn) | > 120
COc1ccc(C(=O)NC2CCN(c3cnn(CC4CC4)c(=O)c3)CC2)c(OC)n1 | > 120
CC[C@@H](C)Nc1cc(C(=O)NC2CC3CC[C@@H](C2)N3c2ccc(C(=O)C3CC3)cn2)c(C)cc1C(N)=O (stereo partly drawn) | > 120
CN1CC(=O)N/C1=N/C(=O)Nc1cccc(Cl)c1 | 24.1
N#Cc1cc(-c2n[nH]c(-c3ccncc3)n2)ccn1 | 90.6
CN(C(=O)CN(CCO)CC(=O)N(C)C(C)(C)Cc1ccccc1)C(C)(C)Cc1ccccc1 | 0.58
CN(C)c1nc(NC2CCC(NCCc3ccc(Br)cc3OC(F)(F)F)CC2)nc2ccccc12 (stereo not drawn) | > 120
CCOC(=O)c1cc(=O)c2c(OCC(COc3cccc4oc(C(=O)OCC)cc(=O)c34)OC(=O)[C@@H](N)CCCCN)cccc2o1 | 4.47
COc1ccc(C(=O)N2CCCC2=O)cc1 | > 120
CCCCCCCCCCCCCCCCCCN(C)C | > 120
O=C(NCC1CCOCC1)c1cnc(Nc2ccc(Cl)cc2Cl)nc1C(F)(F)F | 38.1
Cn1nc(C(C)(C)C)cc1C(=O)NC(Cc1cccc(Cl)c1)C(=O)NCC#N (stereo not drawn) | 67.4
CCN(CC)C(=O)C1CN2CCc3cc(OC)c(OC)cc3C2CC1OC(C)=O (stereo not drawn) | > 120
Cc1ccccc1-n1c([C@H](C)Nc2nc(N)nc3nc[nH]c23)nc2cccc(C)c2c1=O | 103

Structure (SMILES) | half-life [min]
CCc1ccc(NC(=O)N2CCN(c3nnc(C)c4c(C)n(-c5ccc(Cl)cc5)nc34)CC2)cc1 | 25.5
CN(C)CCN(Cc1cccs1)c1ccccn1 | 23.8
CCC1(O)CC2c3cc(OC)c(OC)cc3CCN2CC1CC(C)C (stereo not drawn) | > 120
C#CCN(Cc1cc2c(=O)n(C)c(CN3CCN(C)CC3)nc2cc1Cl)c1ccc(C(=O)NCc2cccnc2)cc1 | 4.83
CC(C)(C)NCC(O)COc1ccc(NC(=O)NC2CCCCC2)cc1 (stereo not drawn) | > 120
Cc1ccc(-c2c(-c3nn(C)c4ncnc(N5CCC(N6CCCCC6)C5)c34)cnn2C)cc1 (stereo not drawn) | > 120
COC1CCN(C(=O)c2cc(Cc3n[nH]c(=O)c4ccccc34)ccc2F)CC1 | 76.1
C[C@]12Cc3cn[nH]c3C[C@@H]1CC[C@@H]1[C@@H]2CC[C@@]2(C)[C@H]1CC[C@]2(C)O | 24
OC1(c2ccc(Cl)cc2)CCNCC1 | > 120
CC1(C#N)CCN(c2c(C(=O)N3CCN(C(=O)N4CCCC4)CC3)cnc3c(F)cc(F)cc23)CC1 | 27.2
CCCCCC(=O)N1CCC[C@H]1C(=O)N[C@@H](Cc1ccc(O)cc1)C(=O)OC (Hexanoyl-Pro-Tyr-OMe) | 7.74
NC(=O)N1c2ccccc2C=Cc2ccccc21 | > 120
CCOP(=S)(OCC)Oc1ccc2c(C)c(Cl)c(=O)oc2c1 | 5.07
Cc1ccc2c(c1)C(=O)[C@]1(O)CCN(c3ccccc3)C1=N2 | 1.71
COc1ccc(CC(=O)Nc2c(C(=O)N3CCN(c4ccccc4F)CC3)oc3ccccc23)cc1OC | 5.26
COC(=O)N[C@@H](C)CNc1nccc(-c2cn(C(C)C)nc2-c2cc(Cl)cc(NS(C)(=O)=O)c2F)n1 | 34.4
O=C(Nc1nnc(-c2ccc3c(c2)OCCO3)o1)C1CCCCC1 | 0.57
CCN(CC)C(=O)c1cccc(C)c1 | > 120
CC(C)COC[C@H](CN(Cc1ccccc1)c1ccccc1)N1CCCC1 | 21.1
CCOc1ccc(-c2cc(NC(=O)Nc3ccccc3Cl)c(C(=O)OC)s2)cc1 | 47.8
S=C(NCc1ccc2c(c1)OCO2)N1CCN(c2ncnc3c2oc2ccccc23)CC1 | 18.6
CCCCCCCCC(=O)NCc1ccc(O)c(OC)c1 | 3.71
O=C(NCc1ccc(OC(F)(F)F)cc1)C1c2c(F)cccc2C(=O)N1CCc1ccccn1 (stereo not drawn) | 6.61
CCN(CC)C(C)C(=O)c1ccccc1 (stereo not drawn) | > 120
CC1CCN(CC(=O)N2CCCc3c2c(=O)oc2ccc(OCc4ccccc4)cc32)CC1 | 1.52
C[C@@H]1C[C@H]2[C@@H]3C[C@H](F)C4=CC(=O)C(Cl)=C[C@]4(C)[C@@]3(F)[C@@H](O)C[C@]2(C)[C@@]1(O)C(=O)CO | 46.3

Structure (SMILES) | half-life [min]
O=c1c(N2CCN(c3cccc(Cl)c3)CC2)csc2ccc(Cl)cc12 | 12.8
C[C@H](N)C(=O)N1CCC(n2nccc2NC(=O)Nc2ccccc2Cl)CC1 | > 120
COCC(=O)Nc1c(I)c(C(=O)NCC(O)CO)c(I)c(C(=O)N(C)CC(O)CO)c1I (stereo not drawn) | 84.2
COc1ccc2cc(OCC3(C(=O)O)CN(C(=O)c4ccc(F)cc4)C3)ccc2c1 | 8.64
CCCCOCc1cc(CN2CCN(c3cccc(Cl)c3)CC2)c(O)c2ncccc12 | 10.3
Fc1ccc(C2CCNC[C@H]2COc2ccc3c(c2)OCO3)cc1 (stereo partly drawn) | 28.9
CC(=O)NC[C@H]1CN(c2ccc(N3CCSCC3)c(F)c2)C(=O)O1 | > 120
CCOC(=O)c1ccc(Nc2nc3nonc3nc2Nc2cccc(C)c2C)cc1 | 10.7
CCN(CC)CCCN(c1ccccc1)C1Cc2ccccc2C1 | 11.5
Cc1cc(C(=O)N2CCCCc3ccccc32)ccc1CNC(=O)N1CCC[C@H]1C(=O)N(C)C | 6.54
O=C1CC2(CCCC2)CC(=O)N1CCNC[C@H]1COc2ccccc2O1 | 8.26
O=C(O)c1ccc(Nc2ncc3c(n2)-c2ccc(Cl)cc2C(c2c(F)cccc2F)=NC3)cc1 | 46.9
CCCCNC(=O)NS(=O)(=O)c1ccc(C)cc1 | 115
O=C(O)Cc1ccc2oc(-c3ccc(NC(=O)/C=C/c4ccc(Br)cc4)c(F)c3)nc2c1 | > 120
CCCCCn1cc(C(=O)Oc2cccc3cccnc23)c2ccccc21 | 4.97
CN1C2CCC(C)(C)C1CC(OC(=O)C(O)(c1cccs1)c1cccs1)C2 (stereo not drawn) | 26.5
C=CC(=O)Nc1ccc2ncnc(Nc3cccc(Br)c3)c2c1 | 12.5
CN1CCN(C(=O)c2ccc(Nc3nccc(-c4cccs4)n3)cc2Cl)CC1 | 19.2
CCOc1cc(=O)n2c(c1C(=O)Nc1ccc(S(N)(=O)=O)cc1)CCCC2 | > 120
CCOCCCNC(=O)CCC(=O)NNc1nc2ccccc2c2nc(-c3ccccc3)nn12 | 88
CCN(C(=O)c1sc2cc(OC)ccc2c1Cl)c1ccccc1 | 3.3
COc1cc(O)cc(O)c1 | > 120
COc1cc2c(c(OC)c1OC)-c1ccc(OC)c(=O)cc1[C@@H](NC(C)=O)CC2 | > 120
COc1ccc(-n2nc(C3CCCN(CC4CCCCC4)C3)[nH]c2=O)cc1 (stereo not drawn) | 108
CC1=NOC2(CCN(Cc3ccc(C#N)cc3)C2)C1 (stereo not drawn) | > 120
